In paper PMC13429874, “ABHD2 activity is not required for the non-genomic action of progesterone on human sperm” (Human Reproduction (Oxford, England), 2026):
Blank lines part the entries; values can stand above or below the molecule they belong to.

Tests used:
[1] = target: T1, human ABHD10 (Homo sapiens, UniProt Q9NUJ1); assay: ABHD10 colorimetric assay with p-nitrophenyl butyrate; assay type: biochemical; conditions: 10 µM compound, 500 µM p-NPB
T1 construct: Constructs encoding amino acids T53—N306 of human ABHD10; His6-TEV site (N); made in house; host or cells: E. coli
T1 sequence (Q9NUJ1 53-306): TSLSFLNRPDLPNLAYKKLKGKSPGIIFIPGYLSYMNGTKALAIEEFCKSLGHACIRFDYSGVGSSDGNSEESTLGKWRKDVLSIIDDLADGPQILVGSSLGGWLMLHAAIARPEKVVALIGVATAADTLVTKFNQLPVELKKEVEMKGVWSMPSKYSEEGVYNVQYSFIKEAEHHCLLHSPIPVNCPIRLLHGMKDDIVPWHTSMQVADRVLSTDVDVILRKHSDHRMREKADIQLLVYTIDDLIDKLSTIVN
Description: (§1) Enzymatic activities of ABHD10 and ABHD11 were measured in a colorimetric assay using p-nitrophenyl butyrate (p-NPB) as substrate. Enzymes at 1500 nM ABHD10 and 125 nM ABHD11 in 20 mM HEPES pH 7.5, 150 mM NaCl, and 2% (v/v) DMSO were pre-incubated in 96-well plates with 50 µM test compound for 30 min at 4°C. Plates were then equilibrated at 37°C for 2 min, and reactions were initiated by adding 160 µl of pre-warmed substrate solution (same buffer with 625 µM p-NPB) to a total volume of 200 µl, yielding final assay concentrations of 300 nM ABHD10, 25 nM ABHD11, and 500 µM pNPB. The substrate solution was prepared immediately before addition to the enzyme mixtures. Absorbance at 405 nm was recorded on a SpectraMax iD3 plate reader (Molecular Devices) for 20 min with continuous monitoring at 30 s intervals.

[2] = target: T2, ABHD2^L33–E425 (Homo sapiens, UniProt P08910); assay: ABHD2^L33-E425 fluorometric enzymatic activity assay with 7-HCA substrate; assay type: biochemical
T2 construct: expression for ABHD2 amino acids L33–E425, in which a predicted transmembrane domain (amino acids 1–32) is removed; His6-FLAG (N); made in house; host or cells: E. coli BL21(DE3)-R3-pRARE2
T2 sequence (P08910 33-425): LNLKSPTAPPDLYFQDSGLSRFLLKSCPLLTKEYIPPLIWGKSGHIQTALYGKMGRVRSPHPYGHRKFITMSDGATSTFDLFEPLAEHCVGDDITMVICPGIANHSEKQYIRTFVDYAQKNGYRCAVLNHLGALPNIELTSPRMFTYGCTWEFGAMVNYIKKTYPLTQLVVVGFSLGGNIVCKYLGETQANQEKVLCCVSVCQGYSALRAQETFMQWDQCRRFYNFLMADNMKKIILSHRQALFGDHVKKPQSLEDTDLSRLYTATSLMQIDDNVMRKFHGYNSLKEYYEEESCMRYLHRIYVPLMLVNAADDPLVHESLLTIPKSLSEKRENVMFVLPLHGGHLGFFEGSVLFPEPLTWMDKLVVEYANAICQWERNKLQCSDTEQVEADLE

[3] = target: T3, full-length human ABHD2 (ABHD2^FL) (Homo sapiens, UniProt P08910); assay: ABHD2^FL enzymatic activity assay with 7-HCA substrate; assay type: biochemical
T3 construct: TEV site-eGFP-8xHis (C, cleaved yes); made in house; host or cells: SF9 insect cells (baculovirus)
T3 sequence (P08910 1-425): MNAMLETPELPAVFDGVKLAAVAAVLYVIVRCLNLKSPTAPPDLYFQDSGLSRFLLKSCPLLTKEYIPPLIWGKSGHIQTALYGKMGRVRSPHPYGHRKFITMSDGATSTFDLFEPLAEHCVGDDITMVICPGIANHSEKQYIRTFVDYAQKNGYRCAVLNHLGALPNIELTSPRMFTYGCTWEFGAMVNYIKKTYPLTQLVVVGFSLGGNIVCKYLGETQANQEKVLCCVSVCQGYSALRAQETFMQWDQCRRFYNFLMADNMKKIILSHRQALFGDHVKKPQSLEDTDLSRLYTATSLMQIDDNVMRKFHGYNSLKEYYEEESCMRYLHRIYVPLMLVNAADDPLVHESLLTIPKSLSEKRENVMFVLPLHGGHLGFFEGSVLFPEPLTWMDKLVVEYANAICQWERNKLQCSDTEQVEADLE

[4] = target: T4, human ABHD11 (Homo sapiens, UniProt Q8NFV4); assay: ABHD11 colorimetric assay with p-nitrophenyl butyrate; assay type: biochemical; conditions: 10 µM compound, 500 µM p-NPB
T4 construct: residues V34—V315 of human ABHD11; His6-TEV site (N); made in house; host or cells: E. coli
T4 sequence (Q8NFV4 25-306 limits assumed): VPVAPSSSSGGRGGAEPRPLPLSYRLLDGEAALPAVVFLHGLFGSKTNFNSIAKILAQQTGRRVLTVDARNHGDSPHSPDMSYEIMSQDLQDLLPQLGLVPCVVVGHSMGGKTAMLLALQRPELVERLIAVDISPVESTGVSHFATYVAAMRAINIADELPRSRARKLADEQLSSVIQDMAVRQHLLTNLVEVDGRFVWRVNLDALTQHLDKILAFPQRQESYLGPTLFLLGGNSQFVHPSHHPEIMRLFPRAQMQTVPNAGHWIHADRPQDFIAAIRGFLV
Description: as §1

[5] = target: T2, ABHD2^L33–E425; assay: Differential scanning fluorimetry (DSF) with purified ABHD2^L33–E425; assay type: binding
[6] = target: T3, full-length human ABHD2 (ABHD2^FL); assay: ABHD2^FL enzymatic activity assay with resorufin butyrate (RB) substrate; assay type: biochemical
[7] = target: T5, ABHD2^FL (Homo sapiens, UniProt P08910); assay: Differential scanning fluorimetry (DSF) with purified ABHD2^FL; assay type: binding; conditions: 20 µM
T5 construct: TEV site-eGFP-8xHis (C, cleaved yes); made in house; host or cells: SF9 insect cells (baculovirus)
T5 sequence (P08910 1-425): T3 sequence (P08910 1-425)

[8] = tested on: human sperm; assay: Sperm hyperactivation assay (CASA); assay type: cell-based; conditions: 3 µM, 30 min
Description: Sperm hyperactivation was assessed in human sperm purified by density gradient centrifugation. Semen samples (n = 7) were allowed to liquefy for 15–30 min at 37°C, and up to 2 ml of liquified semen was layered onto a two-step GM501 gradient system (45%/90%; Gynemed; Sierksdorf, Germany) pre-equilibrated at 37°C. Gradients were centrifuged for 20 min at 400 × g (no break). The 90% pellet was collected, washed in SpermActive medium (Gynemed; composition per manufacturer: NaCl, KCl, MgSO4.7H2O, KH2PO4, 1.77 mM CaCl2.2H2O, D(+)-glucose anhydrous, sodium pyruvate, sodium lactate, EDTA, alanyl-glutamine, essential and non-essential amino acids, 25.71 mM NaHCO3, 15 mM HEPES, 5 g/l human serum albumin, 10 mg/l gentamicin, and phenol red), and incubated for at least 2 h at 37°C, 5% CO2.
For compound testing, sperm suspensions with 7.5 × 10^6 sperm/ml in SpermActive were treated with either DMSO (vehicle) or 10 µM test compound. For basal and induced hyperactivation conditions, DMSO or progesterone (3 µM), respectively, was added. Samples were incubated for 30 min at 37°C, 5% CO2, before motility analysis.
Motility was analyzed using a CASA system (CEROSII^TM Animal Motility, software version 1.16; Hamilton Thorne, Beverly, MA, USA), mounted on an Axiolab 5 microscope (Zeiss, Germany), equipped with a TPi-SX Thermal Plate (Tokai Hit; Shizuoka-ken, Japan) and a JAI CM-040-GE CCD camera (JAI; Tokyo, Japan). Leja slides (20 µm chamber depth; Leja Products B.V., Nieuw-Vennep, The Netherlands) were pre-warmed to 37°C, cleaned with lens paper, and loaded by capillary action with 6 µl sperm suspension; capillary correction was set to 1.3. Sperm tracks were recorded at 37°C using a 10× negative-phase objective, acquiring 60 frames at 60 Hz with 4 ms exposure and gain set to 600. For each sample and condition, 300–500 motile sperm from at least 10 non-overlapping fields were analyzed. Hyperactive sperm were identified using the SORT function with the following Boolean argument: VCL > 150 µm/s and LIN < 50% and ALH > 7 µm. For each sample and condition, the percentage of hyperactive sperm was normalized to the percentage of motile sperm, and the mean of two technical duplicates was reported.
Statistical analysis was performed using GraphPad Prism 10 for Windows (version 10.6.1). Data normality was assessed using Shapiro–Wilk test. Differences between basal and induced hyperactivation were evaluated using a paired t-test, with effective pairing confirmed across all comparisons. P < 0.05 was considered statistically significant.

[9] = target: the molecule itself; assay: SEC; HiLoad 16/600 Superdex 75 pg, final purification step after nickel affinity; pure fractions concentrated in 20 mM HEPES pH 8, 500 mM NaCl, 10% (v/v) glycerol, 1 mM TCEP

inhibition of ABHD10 [1]: no detectable inhibition | IC50 ([2]; 10 nM enzyme, 10 µM 7-HCA, read-out: IC50 for ABHD2^L33-425, fluorometric assay using 7-HCA): 320 nM | IC50 ([3]; Supplementary Table S2, read-out: IC50 measured in ABHD2^FL in the 7-HCA Assay): 490 nM | inhibition of ABHD11 [4]: no detectable inhibition | effect on melting temperature / thermal stability of ABHD2^L33-E425 (DSF), in words ([5]; 10 µM compound, 30 min pre-incubation): increased melting temperature | ΔTm shift for ABHD2^L33-425 determined by DSF ([5]; purified protein): 13 °C
Molecule: O=C(N1CCCCC1)N1CCCCC1c1ccccc1 (stereo not drawn) [Compound 2]

IC50 ([3]; 5 µM 7-HCA, read-out: IC50, ABHD2^FL, 7-HCA assay): 969 nM | IC50 ([6]; 15 µM RB): 305 nM
Molecule: CCCCCCCCCCC[C@@H](C[C@@H]1OC(=O)[C@H]1CCCCCC)OC(=O)[C@H](CC(C)C)NC=O [Orlistat]

Km ([6]; 25 nM ABHD2^FL, read-out: Km of substrate hydrolysis by ABHD2^FL): 23 µM
Molecule: CCCC(=O)Oc1ccc2nc3ccc(=O)cc-3oc2c1 [RB, resorufin butyrate]

effect on heat-induced denaturation of ABHD2^FL (DSF binding) [7]: did not affect | effect on enzymatic activity of purified ABHD2^L33–E425 ([2]; 5 µM steroid or triterpenoid, 300 nM 7-HCA): did not alter | effect on enzymatic activity of purified ABHD2^FL ([3]; 7-HCA and RB substrates (Suppl. Fig. S4A,B), weak effects at ≥5 µM): did not alter | effect on heat-induced denaturation of ABHD2^L33–E425 (DSF binding) ([5]; 40 µM steroid, 30 min pre-incubation): did not affect
Molecule: CC(=O)[C@H]1CC[C@H]2[C@@H]3CCC4=CC(=O)CC[C@]4(C)[C@H]3CC[C@]12C [progesterone]
fraction of hyperactivated sperm upon stimulation [8]: increased

B1: Truncated ABHD2 (ABHD2^L33–E425) (domain or fragment, human, UniProt P08910 33-425, looked up)
chain: T2 sequence (P08910 33-425)
notes: human ABHD2 (alpha/beta hydrolase domain-containing protein 2), Uniprot ID P08910, amino acids L33-E425; the predicted transmembrane domain (amino acids 1-32) is removed; No tag cleavage is described; Further construct details may be in the Supplementary Materials and Methods; also called ABHD2^L33-425; ABHD2 amino acids L33–E425; source: E. coli BL21(DE3)-R3-pRARE2, purified (nickel-sepharose, …)
stoichiometry N [9]: 4
